Data set [1] concerns A549, Vero E6, MDCK, HRT18G, MA04, MARC, and LLC-PK cells.
Protocol: (§1) To determine the half-maximal cytotoxic concentration (CC50) of the lipase inhibitors atglistatin and CAY10499, Vero E6, A549, HRT-18G, MA104, MARC-145, and LLC-PK cells were prepared in monolayers in 96-well plates.
(§2) The cells were treated with the drugs for 24 hours, and the culture media was removed before addition of 200 μL of 3-(4,5-dimethylthiazol-2-yl)-2,5-diphenyl tetrazolium bromide (MTT) solution to each well. The plates were then incubated for 4 hours in a 5% CO2 incubator at 36° C. Subsequently, 150 μL of DMSO solution was added to each well and incubated at 20° C. The optical density (OD) was measured at 570 nm wavelength using an enzyme-linked immunosorbent assay (ELISA) reader.
Data set [2] deals with HRT18G cells.
Protocol: as §1, §2
Data set [3] deals with MA104 cells.
Protocol: as §1, §2
For data set [4], the system named is LLC-PK cells.
Protocol: as §1, §2
Data set [5] has as its system A549 cells.
Protocol: as §1, §2
Data set [6] can be described thus: MTT half-maximal cytotoxic concentration (CC50). Conditions: African green monkey.
Protocol: as §1, §2
In data set [7] the test system is A549 cells. In words: MTT half-maximal cytotoxic concentration (CC50). Conditions: drugs for 24 hours.
Protocol: as §1, §2
Data set [8] deals with HRT18G cells. In words: MTT half-maximal cytotoxic concentration (CC50). The note with it: drugs for 24 hours.
Protocol: as §1, §2
Data set [9] concerns MA104 cells. In words: MTT half-maximal cytotoxic concentration (CC50). The note with it: MA104; drugs for 24 hours, MTT.
Protocol: as §1, §2
In the next data set the test system is MARC cells. In words: MTT half-maximal cytotoxic concentration (CC50). Conditions: MARC; drugs for 24 hours, MTT.
Data set [10] deals with LLC-PK cells. In words: MTT half-maximal cytotoxic concentration (CC50). Conditions: LLC-PK; drugs for 24 hours, MTT.
Protocol: as §1, §2

The text below walks through data of patent US20240285557A1, “PHARMACEUTICAL COMPOSITION COMPRISING LIPASE INHIBITOR FOR TREATMENT OR TREATMENT OF RNA VIRAL INFECTIONS” (priority 2021, published 2024).

Each structure is given as a SMILES string. Where two headings read alike, the source gives them in different places.

Protocol for MARC cells: as §1, §2
Protocol for Vero E6 cells: as §1, §2

A word on the CC50: it is the concentration that lowers cell viability or growth by half. As for `COc1nn(-c2ccc(NC(=O)OCc3ccccc3)c(C)c2)c(=O)o1` [CAY10499], the CC50 in [1] was 101 to 110 µM; in the data set on HRT18G cells [2], 104 µM; in the data set with MDCK cells, 110 µM; in the data set with MA104 cells [3], 107 µM; in the data set with Vero E6 cells, 102 µM; with LLC-PK cells [4], 109 µM. In the data set on A549 cells [5], this compound had a half-maximal cytotoxic concentration (CC50) of 106 µM.

In turn, `CCN(C)C(=O)Nc1cccc(-c2ccc(N(C)C)cc2)c1` [DABPU-EM, 3-(4′-(dimethylamino)-(1,1′-biphenyl)-3-yl)-1-ethyl-1-methylurea] displayed a CC50 at 24 h in data set [6] of 210 µM.

With `CCN(CC)C(=O)Nc1cccc(-c2ccc(N(C)C)cc2)c1` [DABPU-DE], the 50% cytotoxic concentration (CC50) in the data set with A549 cells [7] came to 213 µM; in the data set with HRT18G cells [8], 177 µM; with MA104 cells [9] it was 209 µM; in the data set on MARC cells it was 216 µM; in the data set with LLC-PK cells [10], 226 µM.
